Test results taken from patent US8114904B2, “Luminescence quenchers and fluorogenic probes for detection of reactive species” (Versitech Limited & Morningside Ventures Limited, priority 2008, dated 2012).

What was measured:
[1] = Detection of hypochlorite: fluorescence spectra after addition of NaOCl; conditions: 1 μM probe
Description: Compound 14 obtained in Example 6 was dissolved in DMF to a concentration of 1 mM, and then the solution was diluted to 1 μM by 0.1 M potassium phosphate buffer (pH 7.4). Commercial bleach was the source of NaOCl. The concentration of NaOCl was determined by titration with sodium thiosulfate solution which was standardized by the titration with KlO3. Then NaOCl was added to provide final concentrations of 0, 2, 3, 4, 5, 6, 7, and 8 μM. Fluorescence spectra of the solutions were measured after 5 minutes under the same conditions as mentioned above.

[2] = Comparison of specificity with different ROS and RNS; conditions: 1 μM probe in 0.1 M potassium phosphate buffer
Description: The reactivity of Compound 10 was compared toward different reactive oxygen species (ROS) and reactive nitrogen species (RNS), including OCl^−, H2O2, ^1O2, NO, O2^•−, ^•OH, ONOO^− and alkylperoxyl radical (ROO^•). Different reactive oxygen species and reactive nitrogen species were added independently to 5 mL of the solution of Compound 10 (10 μM in 0.1 M potassium phosphate buffer). The changes of fluorescence intensity before and after the treatment were measured. The reactive oxygen species and reactive nitrogen species were prepared as follows. • a. H2O2 (final 100 μM) was added and then stirred for 1 hour at 25° C. • b. (3-(1,4-Dihydro-1,4-epidioxy-1-naphthyl)propionic acid) (final 100 μM) was added and then stirred at 25° C. for 1 hour. • c. 2,2′-Azobis(2-amidinopropane)dihydrochloride (final 100 μM) was added and then stirred at 25° C. for 1 hour. • d. SNP (Sodium Nitroferricyanide (III) Dihydrate) (final 100 μM) was added and then stirred for 1 hour at 25° C. • e. O2^•− was generated by xanthine and xanthine oxidase. Xanthine oxidase was added firstly. After xanthine oxidase was dissolved, xanthine (final 100 μM) was added and the mixtures were stirred at 25° C. for 1 hour. • f. Ferrous chloride (final 10 μM) was added in the presence of 10 equivalences of H2O2 (100 μM). • g. ONOO^− (final 10 μM) was added at 25° C. • h. NaOCl (final 10 μM) was added at 25° C. Commercial bleach was the source of NaOCl.
The reactivity of Compound 12 was compared toward different reactive oxygen species (ROS) and reactive nitrogen species (RNS), including OCl^−, H2O2, ^1O2, NO, O2^•−, ^•OH, ONOO^− and alkylperoxyl radical (ROO^•). Different reactive oxygen species and reactive nitrogen species were added independently to 5 mL of the solution of Compound 12 (1 μM in 0.1 M potassium phosphate buffer). The changes of fluorescence intensity before and after the treatment were measured. The reactive oxygen species and reactive nitrogen species were prepared as follows: • i. H2O2 (final 100 μM) was added and then stirred for 1 hour at 25° C. • j. (3-(1,4-Dihydro-1,4-epidioxy-1-naphthyl)propionic acid) (final 100 μM) was added and then stirred at 25° C. for 1 hour. • k. 2,2′-Azobis(2-amidinopropane)dihydrochloride (final 100 μM) was added and then stirred at 25° C. for 1 hour. • l. SNP (Sodium Nitroferricyanide (III) Dihydrate) (final 100 μM) was added and then stirred for 1 hour at 25° C. • m. O2^•− was generated by xanthine and xanthine oxidase. Xanthine oxidase was added firstly. After xanthine oxidase was dissolved, xanthine (final 100 μM) was added and the mixtures were stirred at 25° C. for 1 hour. • n. Ferrous chloride (final 10 μM) was added in the presence of 10 equivalences of H2O2 (100 μM). • o. ONOO^− (final 10 μM) was added at 25° C. • p. NaOCl (final 10 μM) was added at 25° C. Commercial bleach was the source of NaOCl.
The reactivity of Compound 14 was compared toward different reactive oxygen species (ROS) and reactive nitrogen species (RNS), including OCl^−, H2O2, ^1O2, NO, O2^•−, ^•OH, ONOO^− and alkylperoxyl radical (ROO^•). Different reactive oxygen species and reactive nitrogen species were added independently to 5 mL of the corresponding solution of Compound 14 (1 μM in 0.1 M potassium phosphate buffer). The changes in fluorescence intensity before and after the treatment were measured. The reactive oxygen species and reactive nitrogen species were prepared as follows: • a. H2O2 (final 100 μM) was added and then stirred for 1 hour at 25° C. • b. (3-(1,4-Dihydro-1,4-epidioxy-1-naphthyl)propionic acid) (final 100 μM) was added and then stirred at 25° C. for 1 hour. • c. 2,2′-Azobis(2-amidinopropane)dihydrochloride (final 100 μM) was added and then stirred at 25° C. for 1 hour. • d. SNP (Sodium Nitroferricyanide (III) Dihydrate) (final 100 μM) was added and then stirred for 1 hour at 25° C. • e. O2^•− was generated by xanthine and xanthine oxidase. Xanthine oxidase was added firstly. […]

[3] = Emission spectra of the probe itself; type: physicochemical; conditions: 1 μM, 0.1 M phosphate buffer pH 7.4, excitation 515 nm, Hitachi F2500, 700 V
Description: (§1) Compound 10 obtained in Example 4 was dissolved in DMF to a concentration of 10 mM, and then the solution was diluted to 10 μM by 0.1 M phosphate buffer (pH 7.4). The fluorescence spectrum of the 10 μM solution of Compound 10 was measured using a Hitachi F2500 fluorescence spectrometer and the photomultiplier voltage was 700 V. The slit width was 2.5 nm for both excitation and emission. The measurement was carried out at an excitation wavelength of 520 nm. The results shown in FIG. 1 indicate that Compound 10 itself is non-fluorescent.
(§2) Compound 12 obtained in Example 5 was dissolved in DMF to a concentration of 1 mM, and then the solution was diluted to 1 μM by 0.1 M phosphate buffer (pH 7.4). The fluorescence spectrum of the 1 μM solution of Compound 12 was measured using a Hitachi F2500 fluorescence spectrometer and the photomultiplier voltage was 700 V. The slit width was 2.5 nm for both excitation and emission. The measurement was carried out at an excitation wavelength of 515 nm. The results shown in FIG. 4 indicate that Compound 12 itself is non-fluorescent.
as §2, with “Compound 14” for “Compound 12”, “Example 6” for “Example 5”, “FIG. 6” for “FIG. 4”
as §1, with “Compound 30” for “Compound 10”, “Example 7” for “Example 4”, “Hitachi F7000” for “Hitachi F2500”, “was 900” for “was 700”, “nm.” for “nm. The results shown in FIG. 1 indicate that Compound 10 itself is non-fluorescent.”

[4] = UV-visible absorption spectrum; type: physicochemical; conditions: 1 μM solution, pH 7.4 0.1 M phosphate buffer, 0.1% DMF
Description: Compound 10 obtained in Example 4 was dissolved in pH 7.4 0.1 M phosphate buffer containing 0.1% DMF as cosolvent to form a 10 μM solution.
Compound 12 obtained in Example 5 was dissolved in pH 7.4 0.1 M phosphate buffer containing 0.1% DMF as cosolvent to form a 1 μM solution.
Compound 14 obtained in Example 6 was dissolved in pH 7.4 0.1 M phosphate buffer containing 0.1% DMF as cosolvent to form a 1 μM solution.
Compound 30 obtained in Example 7 was dissolved in pH 7.4 0.1 M phosphate buffer containing 0.1% DMF as cosolvent to form a 10 μM solution. The absorption spectrum of the 10 μM solution of Compound 30 was measured.

CN(c1ccc(N)cc1)c1ccc2c(c1)Oc1cc(O)ccc1C21OC(=O)c2ccccc21 (stereo not drawn) [Compound 14]
fluorescence intensity at 535 nm with increasing concentration of hypochlorite ([1]; 0.1 M potassium phosphate buffer pH 7.4): increases linearly
fluorescence intensity after the addition of hypochlorite ([1]; NaOCl 0-8 μM, 0.1 M potassium phosphate buffer pH 7.4, after 5 minutes, excitation 515 nm): increase significantly
reactivity among ROS and RNS in an abiotic system [2]: much higher reactivity towards hypochlorite
fluorescence enhancement by hypochlorite compared with any other ROS and RNS ([2]; 25° C.): much stronger fluorescence enhancement
fluorescence of the probe itself [3]: non-fluorescent
absorption maximum [4]: about 515 nm
